Experimental data reported in article PMC3894558, “Chemical signatures and new drug targets for gametocytocidal drug development” (Scientific Reports, 2014).
Where two headings read alike, the source gives them in different places.

System: P. falciparum 3D7 gametocytes
Test: alamarBlue gametocyte viability assay, strain 3D7
Type: cell-based, Plasmodium falciparum
Conditions: for Max Resp: DMSO set at 0%, 100 nM epoxomicin set at -100%; for Curve Class / IC50: stages III-V 3D7 gametocytes; for IC50: 11 concentrations, 1:3 dilution; call rule not given here

SMILES | Max Resp (Malaria Box) | Curve Class (Malaria Box) | IC50 (Malaria Box, read-out: IC50) | IC50 (Malaria Box) | IC50 (Plasmodium falciparum, 3D7, Malaria Box, read-out: IC50)
COc1ccc(C(=O)NC(c2ccccc2Cl)c2cc(Cl)c3cccnc3c2O)cc1 (stereo not drawn) [MMV666022] | -83% | -2.1 | 14.8 µM |  | 
CCOC(=O)c1c(C)n(-c2ccccc2)c2ccc(OC(=O)c3cc(OC)c(OC)c(OC)c3)cc12 [MMV396664] | -4% | 4 |  | Inactive | 
CCOc1cc(Cl)c(C(C)NC(=O)c2cccc(OC)c2)cc1OCC (stereo not drawn) [MMV665803] | -58% | -2.2 | 29.6 µM |  | 
CC(C)(C)CC(C)(C)NCC(O)COc1ccc(Cl)cc1Cl (stereo not drawn) [MMV396794] | -106% | -1.1 | 2.96 µM |  | 
COc1cc(OC)cc(N2C(=O)N(Cc3ccc(C(C)(C)C)cc3)c3ccccc3S2(=O)=O)c1 [MMV008173] | 0% | 4 |  | Inactive | 
CC(C)(C)c1ccc(C(=O)Nc2nc3ccccc3s2)cc1 [MMV142383] | -10% | 4 |  | Inactive | 
COCCn1c(C)nc2ccccc2c1=O [MMV665904] | -7% | 4 |  | Inactive | 
COCCNC(=O)c1ccc(OC2CCN(Cc3ccc(F)c(F)c3)CC2)c(Cl)c1 [MMV666072] | 12% | 4 |  | Inactive | 
CCOc1cc2c(cc1OCC)C(c1cc(OC)c(O)cc1Cl)NCC2 (stereo not drawn) [MMV008956] | -73% | -1.2 | 3.32 µM |  | 
CCOc1ccc(CN2CCN(CC(O)COc3ccc(OCC(O)CN4CCN(Cc5ccc(OCC)cc5)CC4)cc3)CC2)cc1 (stereo not drawn) [MMV007092] | -94% | -1.1 | 7.43 µM |  | 
Cc1ccc(C(=O)c2oc3ccc4c(C)cc(=O)oc4c3c2C)cc1 [MMV086103] | 0% | 4 |  | Inactive | 
CCOC(=O)C1=C(c2ccccc2)N=c2sc(=Cc3cc(C)n(-c4ccc(F)cc4)c3C)c(=O)n2C1c1cccc(OC)c1OC (stereo not drawn) [MMV666601] | -26% | 4 |  | Inactive | 
COc1ccc(-c2cn3c(C(=O)Nc4ccccc4Cl)c(-c4ccccc4)c4c3n2CCCC4)cc1 [MMV020403] | -73% | -2.2 | 23.5 µM |  | 
CN(C)c1ccc(C(O)(c2ccc(N(C)C)cc2)c2ccc(N(C)C)cc2)cc1 [MMV665941] | -118% | -1.1 |  |  | 5.9 µM
Cl.Oc1ccccc1CNCC12CC3CC(CC(C3)C1)C2 [MMV020788] | -43% | -1.2 | 0.105 µM |  | 
CCOc1ccccc1NC(=O)CN1CCN(C(=O)c2ccco2)CC1 [MMV007791] | 1% | 4 |  | Inactive | 
O=C1CC(O)(C(F)(F)C(F)(F)F)Oc2ccccc21 (stereo not drawn) [MMV000972] | -32% | -1.4 | 0.743 µM |  | 
O=C(Nc1ccc(-c2nc3ccccc3[nH]2)cc1)c1ccc(Cl)c(Cl)c1 [MMV665840] | -16% | 4 |  | Inactive | 
COc1cc(SC)ccc1C(=O)N1CCCC(C)C1 (stereo not drawn) [MMV056726] | -5% | 4 |  | Inactive | 

SMILES | Max Resp (Malaria Box) | Curve Class (Malaria Box) | IC50 (Malaria Box, read-out: IC50) | IC50 (Malaria Box) | IC50 (Plasmodium falciparum, 3D7, Malaria Box, read-out: IC50)
Cc1ccc(Nc2nc(NCCO)c3ccccc3n2)cc1C [MMV001038] | -71% | -1.2 | 3.32 µM |  | 
COc1ccc(-c2nc3cc(Cc4ccc5[nH]c(-c6ccc(OC)cc6)nc5c4)ccc3[nH]2)cc1 [MMV007384] | -59% | -2.2 | 37.2 µM |  | 
COc1ccc(C2C(C(=O)Nc3cccc(OC)c3)c3ccccc3C(=O)N2C2CCCCC2)cc1 (stereo not drawn) [MMV008455] | -89% | -2.1 | 16.6 µM |  | 
CC(NCc1ccccc1)c1cc(Cl)ccc1O (stereo not drawn) [MMV665789] | -58% | -1.2 | 1.32 µM |  | 
OC(CNC1CCCC1)Cn1c2ccccc2c2ccccc21 (stereo not drawn) [MMV000848] | -93% | -1.1 | 2.09 µM |  | 
CCOC(=O)C1=CN(C)C=C(C(=O)OCC)C1c1cc(Br)c(OCC)c(OC)c1 [MMV006656] | -72% | -2.2 | 14.8 µM |  | 
O=C(Nc1ccc(F)c(Cl)c1)Nc1ccc(Cl)c(Cl)c1 [MMV665953] | -94% | -2.1 | 18.7 µM |  | 
COc1ccc(OC)c(C2C3=C(CC(C)(C)CC3=O)N(c3ccc(Cl)c(Cl)c3)C3=C2C(=O)CC(C)(C)C3)c1 [MMV007208] | -28% | 4 |  | Inactive | 
COc1ccc(C(=O)C2CC2c2ccc(Cl)cc2)cc1 (stereo not drawn) [MMV665924] | -23% | 4 |  | Inactive | 
CCC(=O)Nc1nnc(Cc2ccc(OC)c(OC)c2)s1 [MMV020942] | -19% | 4 |  | Inactive | 
CC(C)(C)c1ccc(O)c(CNC2CCCCC2)c1 [MMV665785] | -50% | -1.2 | 0.148 µM |  | 
C=C(C)CCC(C)N1CCC(N2CCC(C(=O)NCCc3ccccc3)CC2)CC1 (stereo not drawn) [MMV666110] | -73% | -2.2 | 29.6 µM |  | 
CCOc1ccc2nc(C)cc(Nc3ccc(Br)cc3)c2c1 [MMV006522] | -59% | -2.2 | 29.6 µM |  | 
CCn1nc(-c2ccc(C(=O)OC)cc2)nc2c(=O)n(C)c(=O)nc1-2 [MMV306025] | -98% | -1.1 | 4.69 µM |  | 
CCc1ccc(Nc2cc(C)nc3nc(C)nn23)cc1 [MMV007374] | -9% | 4 |  | Inactive | 
Cl.c1ccc2c(NCCCCCCNc3c4c(nc5ccccc35)CCCC4)c3c(nc2c1)CCCC3 [MMV019555] | -104% | -1.1 | 4.69 µM |  | 
O=C(NCc1ccco1)C1CCN(S(=O)(=O)c2ccc(Br)cc2)CC1 [MMV007430] | 29% | 4 |  | Inactive | 
CCCN(CCC)CCCNC(=O)c1cc2c(-c3ccc(OC)c(OC)c3)nn(C)c2s1 [MMV000561] | -52% | -2.2 |  | Inactive | 
COc1cccc(NC(=O)Cn2c(C)c(C#N)c3ccccc32)c1 [MMV665826] | -52% | -2.2 |  | Inactive | 

SMILES | Max Resp (Malaria Box) | Curve Class (Malaria Box) | IC50 (Malaria Box, read-out: IC50) | IC50 (Malaria Box) | IC50 (Plasmodium falciparum, 3D7, Malaria Box, read-out: IC50)
CCOc1ccc(Nc2ccnc3cc(Cl)ccc23)cc1 [MMV007285] | -38% | -1.2 | 5.26 µM |  | 
Cc1sc(NC(=O)c2ccccc2)c(C(c2cccs2)N2CCN(c3ccccc3)CC2)c1C (stereo not drawn) [MMV396652] | -1% | 4 |  | Inactive | 
O=C(NC1CCN(Cc2ccccc2)CC1)c1cc(-c2cccnc2)nc2ccc(Cl)cc12 [MMV020490] | -61% | -2.2 | 29.6 µM |  | 
COc1ccc(-c2nc(N3CCN(C(=O)C4CCCCC4)CC3)c3c4c(sc3n2)CCCC4)cc1 [MMV396594] | -12% | 4 |  | Inactive | 
CCn1c(CN2CCN(Cc3ccccc3)CC2)nc2cc(NC(=O)c3cccs3)ccc21 [MMV020439] | -25% | 4 |  | Inactive | 
COc1cccc(Nc2nc(N)c3ccccc3n2)c1.Cl [MMV019199] | -66% | -2.2 | 23.5 µM |  | 
COc1ccc(N2CCN(C(CNC(=O)CC(C)(C)C)c3ccc4c(c3)OCO4)CC2)cc1 (stereo not drawn) [MMV665908] | -26% | 4 |  | Inactive | 
CCOc1cc(Br)c(C(C)NC(=O)c2cccc(OC)c2)cc1OCC (stereo not drawn) [MMV665796] | -58% | -2.2 | 37.2 µM |  | 
O=C(NC(c1ccccc1)c1ccc2cccnc2c1O)c1ccccc1 (stereo not drawn) [MMV666080] | -75% | -2.2 | 9.35 µM |  | 
Cc1cc(N2CCN(C3CCCC3)CC2)n2c(nc3ccccc32)c1C#N [MMV006706] | -18% | 4 |  | Inactive | 
CC(=O)Nc1nnc(SCc2c(C)cc(C(C)(C)C)cc2C)s1 [MMV020700] | -2% | 4 |  | Inactive | 
Oc1c(CN2CCN(c3ccccc3F)CC2)cc(Br)c2cccnc12 [MMV000760] | -91% | -1.1 | 3.72 µM |  | 
CCC(O)c1ccc(Br)cc1NC(=O)c1cccc(Cl)c1 (stereo not drawn) [MMV020654] | -37% | -1.2 | 2.09 µM |  | 
Nc1nc(Nc2cccc(F)c2)nc2ccccc12 [MMV080034] | -61% | -2.2 | 29.6 µM |  | 
COc1ccc(C2=C(c3ccc(OC)cc3)C3(c4ccccc4)C(=O)C2(c2ccccc2)C2C(=O)N(c4ccc(C)cc4)C(=O)C23)cc1 (stereo not drawn) [MMV666101] | 1% | 4 |  | Inactive | 
Cc1ccc(-c2cc(C(=O)Nc3ccc(S(=O)(=O)N4CCCCC4)cc3)[nH]n2)c(O)c1 [MMV665906] | -61% | -1.2 | 5.26 µM |  | 
CN1CCN(c2c3c(c(C#N)c4nc5ccccc5n24)CCC3)CC1 [MMV008127] | -5% | 4 |  | Inactive | 
Cc1cc(C=C2SC(=Nc3ccccc3)N(C3CCCC3)C2=O)c(C)n1-c1ccc(Cl)cc1 [MMV666688] | -20% | 4 |  | Inactive | 
COc1ccc(CN2CCN(Cc3ccccc3)CC2)c(O)c1 [MMV665944] | -96% | -2.1 | 6.62 µM |  | 
